Measurements as given in EP0298385A2, “Cyctostatic anthracyclin derivatives” (BEHRINGWERKE Aktiengesellschaft, priority 1987, dated 1989).
In brackets after ≈: the same amount, converted by molar mass. Read-outs that look alike come from different tables or passages of the source.

How the values were obtained:
L1210 Leukämiezellen = test: Colony formation of L1210 leukemia cells in soft agar (cytotoxicity in vitro); type: cell-based, Maus; settings: for IC50: Mus musculus
From the text: Die zytostatische Wirksamkeit der erfindungsgemäßen Verbindungen wurde anhand von L1210 Leukämiezellen der Maus getestet. Hierzu wurde die Koloniebildung von L1210 Leukämiezellen in Agarplatten herangezogen. Diese Methode dient zum Nachweis des Einflusses der Testsubstanzen auf das Wachstumsverhalten der Zellen über 1 Stunde oder über mehrere Generationen. Bei einer Zellzykluszeit von 10-12 Stunden werden dabei in der Testzeit von 7 Tagen etwa 14 aufeinanderfolgende Generationen beobachtet. Die erfindungsgemäßen zytostatisch wirksamen Substanzen bewirken in diesem Test eine Reduktion der zu beobachtenden Koloniezahl gegenüber einer unbehandelten Kontrollprobe.
Verfahrensweise zur Ermittlung der Koloniebildung von L1210 Leukämiezellen in Soft-Agar
500 Leukämiezellen pro Platte wurden mit unterschiedlichen Konzentrationen der Testsubstanz 1 Stunde bei 37°C inkubiert. Anschließend wurden die Zellen zweimal mit McCoy5A-Medium gewaschen und schließlich in Petrischalen nach Zugabe von 0,3 % Agar ausgegossen. Kontrollen wurden lediglich mit frischem Medium inkubiert. Anstelle der einstündigen Inkubation wurden in manchen Fällen unterschiedliche Konzentrationen der Testsubstanzen der oberen Agarschicht zugemischt, um so eine kontinuierliche Exposition der Zellen über die gesamte Inkubationszeit zu erreichen. Nach Erstarren des Agars wurden die Platten im Brutschrank 7 Tage bei 37°C inkubiert (5 Vol. -% CO₂, 95 % relative Luftfeuchtigkeit). Anschließend wurde die Zahl der entstandenen Kolonien mit einem Durchmesser von mehr als 60 µm gezählt. Die Ergebnisse wurden angegeben als Koloniezahl in behandelten Agarplatten in Prozent der unbehandelten Kontrolle. Aus der so erhaltenen Dosiswirkungskurve wurde die IC₅₀ als Maß für die Wirksamkeit der Substanz ermittelt. Die Ergebnisse für die hier beschriebenen Verbindungen im Vergleich zu Adriamycin sind in der nachfolgenden Tabelle 1 zusammengefaßt.
Die Struktur der hergestellten Verbindungen wurde mittels ¹H-NMR- Spektroskopie, UV-Spektroskopie und HPLC-Technik ermittelt. Der Verlauf der Reaktionen wurde, soweit möglich, dünnschichtchromatographisch auf Kieselgel-Fertigplatten verfolgt. Die Ergebnisse der Zytotoxizitäts-Testung gegen L1210-Zellen in vitro sind in Tabelle 1 zusammengefaßt. Tabelle 1

[1] = Stability / hydrolysis of the spacer-bearing anthracyclines in phosphate-buffered saline, HPLC analysis; type: physicochemical
Description: Die jeweilige Verbindung wurde bei einer Konzentration von 1 mg/ml in Acetonitril gelöst und mit Phosphat-gepufferter Kochsalzlösung pH 7.2 im Volumenverhältnis 1:100 verdünnt, wobei eine Konzentration von jeweils 10 µg/ml erhalten wurde. Diese Lösungen wurden jeweils bei 37 °C im Dunkeln inkubiert und 20 µl-Aliquote wurden nach definierten Zeiten mittels der HPLC-Technik untersucht. Die Stabilitäten dieser Verbindungen sind in Fig. 1 graphisch dargestellt.
Verbindung 10 wurde, wie vorstehend beschrieben, unrersucht und mittels HPLC-Technik analysiert.
Verbindung 12 wurde analog zu Verbindung 10 hydrolysiert, wobei jedoch ein pH-Wert von 7,4 verwendet wurde.

[2] = 1 h incubation at 37°C, then washed, colonies counted after 7 days
[3] = continuous exposure in agar, 7 days at 37°C, not differentiated by possible hydrolysis products (footnote a)
[4] = 10 µg/ml in phosphate-buffered saline pH 7.2, 37 °C, dark, releases β-Rhodomycin-I directly and via an intermediate

Row | Molecule | IC₅₀-Werte gegenüber L1210-Zellen in vitro, 1h-Inkubation (L1210 Leukämiezellen; [2]) | IC₅₀-Werte gegenüber L1210-Zellen in vitro, Dauerinkubation (L1210 Leukämiezellen; [3]) | Hydrolyse ([1]; as for Verbindung 10 but pH 7,4, 37 °C) | IC50 (L1210 Leukämiezellen; L1210, 168 h, continuous exposure in agar, 7 days at 37°C, not differentiated by possible hydrolysis products (footnote a), read-out: IC₅₀-Werte gegenüber L1210-Zellen in vitro, Dauerinkubation) [µg/mL] | IC50 (L1210 Leukämiezellen; L1210, 1 h incubation at 37°C, then washed, colonies counted after 7 days, read-out: IC₅₀-Werte gegenüber L1210-Zellen in vitro, 1h-Inkubation) [µg/mL] | Hydrolyse [1, 4]
1 | 4˝-O-(4-Maleimidobenzoyl)-cytorhodin-S [Verbindung 12] | 0,0095 µg/ml | 0,0028 µg/ml | analoges Hydrolyseverhalten | – | – | –
2 | COc1cccc2c1C(=O)c1c(O)c3c(c(O)c1C2=O)C[C@@](O)(C(=O)CO)C[C@@H]3O[C@H]1C[C@H](N)[C@H](O)[C@H](C)O1 [Adriamycin, reference compound] | – | – | – | 0.02 (≈ 0.0368 µM) | 0.04 (≈ 0.0736 µM) | –
3 | CC[C@@]1(O)C[C@H](O[C@H]2C[C@H](N(C)C)[C@H](O[C@H]3C[C@@H]4O[C@H]5CC(=O)[C@H](C)O[C@H]5O[C@@H]4[C@H](C)O3)[C@H](C)O2)c2c(O)c3c(c(O)c2[C@H]1O[C@H]1C[C@H](N(C)C)[C@H](O)[C@H](C)O1)C(=O)c1cccc(O)c1C3=O [Cytorhodin-S, reference compound] | 0,013 µg/ml | 0,003 µg/ml | – | – | – | –
4 | CC[C@@]1(O)C[C@H](O[C@H]2C[C@H](N(C)C)[C@H](OC(=O)c3ccc(N4C(=O)C=CC4=O)cc3)[C@H](C)O2)c2c(O)c3c(c(O)c2[C@H]1O)C(=O)c1cccc(O)c1C3=O [Verbindung 8] | 0,5 µg/ml | 0,11 µg/ml | – | – | – | analoges Hydrolyseverhalten
5 | CCC1(O)CC(OC2CC(N(C)C)C(OC(=O)c3ccc(N4C(=O)C=CC4=O)cc3OC(C)=O)C(C)O2)c2c(O)c3c(c(O)c2C1O)C(=O)c1cccc(O)c1C3=O [Verbindung 10, 7-O-[4′-O-(2-Acetoxy-4-maleimidobenzoyl)-α-L-rhodosaminyl]-β-rhodomycinon] | – | – | – | – | – | hydrolytisch zersetzt
6 | CC[C@@]1(O)C[C@H](O[C@H]2C[C@H](N(C)C)[C@H](OC(=O)CCN3C(=O)C=CC3=O)[C@H](C)O2)c2c(O)c3c(c(O)c2[C@H]1O)C(=O)c1cccc(O)c1C3=O [Verbindung 11, 7-O-[4′-O-(3-Maleimidopropionyl)-α-L-rhodosaminyl]-βrhodomycinon] | 0,11 µg/ml | 0,028 µg/ml | – | – | – | analoges Hydrolyseverhalten
7 | CC[C@@]1(O)C[C@H](O[C@H]2C[C@H](N(C)C)[C@H](O)[C@H](C)O2)c2c(O)c3c(c(O)c2[C@H]1O)C(=O)c1cccc(O)c1C3=O [β-Rhodomycin-I, 7-O-(α-L-Rhodosaminyl)-β-rhodomycinon, reference compound] | 0,05 µg/ml | 0,022 µg/ml | – | – | – | –
